Source: ChEMBL document CHEMBL5463729, “Data for DCP probe BAY 1753011” (2023)

What was measured:
Settings in all cases: Compound concentration 10.0 uM
[1] = target: Bone morphogenetic protein receptor type-2 (Homo sapiens) (UniProt Q13873); test: Inhibition of BMPR2(h) at 10.0 µM in the Eurofins Kinase panel
[2] = target: Mu-type opioid receptor (Homo sapiens) (UniProt P35372)
[3] = target: Protein-tyrosine kinase 6 (Homo sapiens) (UniProt Q13882); test: Inhibition of BRK(h) at 10.0 µM in the Eurofins Kinase panel
[4] = target: Dual specificity tyrosine-phosphorylation-regulated kinase 1A (Homo sapiens) (UniProt Q13627); test: Inhibition of DYRK1A(h) at 10.0 µM in the Eurofins Kinase panel
[5] = target: Serine/threonine-protein kinase pim-3 (Homo sapiens) (UniProt Q86V86); test: Inhibition of Pim-3(h) at 10.0 µM in the Eurofins Kinase panel
[6] = target: Serine/threonine-protein kinase TAO1 (Homo sapiens) (UniProt Q7L7X3); test: Inhibition of TAO1(h) at 10.0 µM in the Eurofins Kinase panel
[7] = target: Tyrosine-protein kinase ABL2 (Homo sapiens) (UniProt P42684); test: Inhibition of Arg(h) at 10.0 µM in the Eurofins Kinase panel
[8] = target: Serine/threonine-protein kinase tousled-like 2 (Homo sapiens) (UniProt Q86UE8); test: Inhibition of TLK2(h) at 10.0 µM in the Eurofins Kinase panel
[9] = target: Beta-2 adrenergic receptor (Homo sapiens) (UniProt P07550)
[10] = target: Proto-oncogene tyrosine-protein kinase receptor Ret (Homo sapiens) (UniProt P07949); test: Inhibition of Ret(h) at 10.0 µM in the Eurofins Kinase panel
[11] = target: Mu-type opioid receptor (Homo sapiens) (UniProt P35372); remark: listed apart in the source
[12] = target: T1, cGMP-dependent protein kinase 1 (Homo sapiens) (UniProt Q13976); test: Inhibition of PKG1beta(h) at 10.0 µM in the Eurofins Kinase panel
T1 sequence (whole entry): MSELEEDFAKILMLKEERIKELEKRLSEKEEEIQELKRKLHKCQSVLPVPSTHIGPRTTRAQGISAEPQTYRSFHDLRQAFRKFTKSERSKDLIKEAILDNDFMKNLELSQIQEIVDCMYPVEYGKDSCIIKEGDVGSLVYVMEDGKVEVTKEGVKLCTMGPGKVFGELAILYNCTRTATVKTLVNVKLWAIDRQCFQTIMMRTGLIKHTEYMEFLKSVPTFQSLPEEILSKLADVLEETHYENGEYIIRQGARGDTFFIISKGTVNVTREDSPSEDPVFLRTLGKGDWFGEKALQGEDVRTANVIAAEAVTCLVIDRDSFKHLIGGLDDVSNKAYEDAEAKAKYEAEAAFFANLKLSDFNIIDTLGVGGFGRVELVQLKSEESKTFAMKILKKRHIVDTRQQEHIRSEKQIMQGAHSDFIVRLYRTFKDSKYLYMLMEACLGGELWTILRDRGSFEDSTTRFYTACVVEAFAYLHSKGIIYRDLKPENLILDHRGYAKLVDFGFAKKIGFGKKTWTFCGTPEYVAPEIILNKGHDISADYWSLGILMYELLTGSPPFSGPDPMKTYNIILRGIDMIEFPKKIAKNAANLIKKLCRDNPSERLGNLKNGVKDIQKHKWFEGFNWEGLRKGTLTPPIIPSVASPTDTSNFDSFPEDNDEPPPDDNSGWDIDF

[13] = target: Maternal embryonic leucine zipper kinase (Homo sapiens) (UniProt Q14680); test: Inhibition of MELK(h) at 10.0 µM in the Eurofins Kinase panel
[14] = target: Serine/threonine-protein kinase pim-2 (Homo sapiens) (UniProt Q9P1W9); test: Inhibition of Pim-2(h) at 10.0 µM in the Eurofins Kinase panel
[15] = target: PI3-kinase p110-delta/p85-alpha (Homo sapiens) (UniProt P27986+O00329); test: Inhibition of PI3 Kinase (p110d/p85a)(h) at 10.0 µM in the Eurofins Kinase panel; assay type: protein-complex assay
[16] = target: Ephrin type-B receptor 1 (Homo sapiens) (UniProt P54762); test: Inhibition of EphB1(h) at 10.0 µM in the Eurofins Kinase panel
ATR/ATRIP (Homo sapiens) = ATR/ATRIP (Homo sapiens) (UniProt Q13535+Q8WXE1); test: Inhibition of ATR/ATRIP(h) at 10.0 µM in the Eurofins Kinase panel; assay type: protein-complex assay
[17] = target: Activin receptor type-2A (Homo sapiens) (UniProt P27037); test: Inhibition of ACTR2(h) at 10.0 µM in the Eurofins Kinase panel
[18] = target: T2, 5-hydroxytryptamine receptor 1A (Homo sapiens) (UniProt P08908)
T2 sequence (whole entry): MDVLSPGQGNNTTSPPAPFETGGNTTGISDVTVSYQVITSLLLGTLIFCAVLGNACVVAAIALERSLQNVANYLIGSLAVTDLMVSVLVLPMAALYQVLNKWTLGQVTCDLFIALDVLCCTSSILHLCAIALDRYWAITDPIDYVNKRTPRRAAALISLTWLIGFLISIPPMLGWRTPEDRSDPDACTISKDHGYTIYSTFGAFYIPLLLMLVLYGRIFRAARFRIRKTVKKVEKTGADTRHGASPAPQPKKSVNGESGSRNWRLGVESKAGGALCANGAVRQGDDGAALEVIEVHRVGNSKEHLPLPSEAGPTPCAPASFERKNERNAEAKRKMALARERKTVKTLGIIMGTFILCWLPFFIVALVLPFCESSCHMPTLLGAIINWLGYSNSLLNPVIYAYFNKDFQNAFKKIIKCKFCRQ

[19] = target: Fibroblast growth factor receptor 2 (Homo sapiens) (UniProt P21802); test: Inhibition of FGFR2(h) at 10.0 µM in the Eurofins Kinase panel
[20] = target: Tau-tubulin kinase 2 (Homo sapiens) (UniProt Q6IQ55); test: Inhibition of TTBK2(h) at 10.0 µM in the Eurofins Kinase panel
[21] = target: Protein kinase C delta type (Homo sapiens) (UniProt Q05655); test: Inhibition of PKCdelta(h) at 10.0 µM in the Eurofins Kinase panel
[22] = target: Kappa-type opioid receptor (Homo sapiens, UniProt P41145)

Structure (SMILES) | inhibition [1] | inhibition [2] | inhibition [3] | inhibition [4] | inhibition [5] | inhibition [6] | inhibition [7] | inhibition [8] | inhibition [9] | inhibition [10] | inhibition [11] | inhibition [12] | inhibition [13] | inhibition [14] | inhibition [15] | inhibition [16] | inhibition (ATR/ATRIP (Homo sapiens)) | inhibition [17] | inhibition [18] | inhibition [19] | further results
O=c1n(Cc2cncn2-c2cccc(Cl)c2)nc(-c2ccc(Cl)cc2)n1C[C@H](O)C(F)(F)F | 14.4% | -6% | -7.96% | 3.54% | 4.9% | 0.29% | 2.02% | -6.55% | 0% | -9.37% | 6.13% | -1.12% | 8.95% | 4.89% | -4.66% | 9.79% | 10.2% | 6.32% | -1% | -6.43% | inhibition [20]: -2.08%; inhibition [21]: -4.61%; inhibition [22]: 3.83%
C[C@H](O)c1nc(Cn2nc(-c3ccc(Cl)cc3)n(C[C@H](O)C(F)(F)F)c2=O)nn1-c1cccc(Cl)c1 [PECAVAPTAN] | 11.1% | 24% | -3.8% | 8.95% | 3.06% | 2.68% | -0.68% | -5.51% | 9% | -9.36% | 14.4% | 1.79% | 10.8% | -2.97% | -1.36% | 4.68% | -5.29% | 5.43% | -2% | -7.72% | inhibition [20]: -8.61%; inhibition [21]: 2.12%; inhibition [22]: 62.4%
